Reference: ChEMBL document CHEMBL1201862, “PubChem BioAssay data set” (2004)
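Grown in 96-well plates, cells were treated for 48 hours with each compound at five concentrations. Insufficient inhibition: endpoint recorded as highest concentration tested. GI50 = concentration required for 50% inhibition of growth.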 The source made the active and inactive calls. No stated cut-off is given here; in the data, active = GI50 up to about 1.1 µM and inactive = higher.

Experiments:
Assay in all cases: NCI anticancer screen, dose series, 48 h
UACC-257 = system: UACC-257
KM12 = system: KM12
A549 = system: A549
OVCAR-3 = system: OVCAR-3
MDA-MB-435 = system: MDA-MB-435
SF-295 = system: SF-295
NCI-H460 = system: NCI-H460
SK-MEL-28 = system: SK-MEL-28
SNB-75 = system: SNB-75
EKVX = system: EKVX
ACHN = system: ACHN
SF-539 = system: SF-539
U-251 = system: U-251
HL-60 = system: HL-60
SK-MEL-5 = system: SK-MEL-5
SW-620 = system: SW-620
HCT-15 = system: HCT-15
NCI-H23 = system: NCI-H23
NCI-H522 = system: NCI-H522
Hs-578T = system: Hs-578T

Structure (SMILES) | GI50 (UACC-257) | GI50 (KM12) | GI50 (A549) | GI50 (OVCAR-3) | GI50 (MDA-MB-435) | GI50 (SF-295) | GI50 (NCI-H460) | GI50 (SK-MEL-28) | GI50 (SNB-75) | GI50 (EKVX) | GI50 (ACHN) | GI50 (SF-539) | GI50 (U-251) | GI50 (HL-60) | GI50 (SK-MEL-5) | GI50 (SW-620) | GI50 (HCT-15) | GI50 (NCI-H23) | GI50 (NCI-H522) | GI50 (Hs-578T)
O=C1CC(=O)N(C2CCCCC2)C(=O)N1c1ccccc1S(=O)(=O)Oc1ccccc1 | > 100 µM (inactive) | > 100 µM (inactive) | > 100 µM (inactive) | > 100 µM (inactive) | > 100 µM (inactive) | > 100 µM (inactive) | > 100 µM (inactive) | > 100 µM (inactive) | > 100 µM (inactive) | > 100 µM (inactive) | 19.1 µM (inactive) | > 100 µM (inactive) | > 100 µM (inactive) | > 100 µM (inactive) | > 100 µM (inactive) | > 100 µM (inactive) | > 100 µM | – | – | –
CN1C(=O)c2c(c3c4ccccc4n(C)c3c3c2c2ccccc2n3C)C1=O | > 100 µM (inactive) | > 100 µM (inactive) | > 100 µM (inactive) | 58.6 µM (inactive) | > 100 µM (inactive) | > 100 µM (inactive) | > 100 µM (inactive) | > 100 µM (inactive) | > 100 µM (inactive) | > 100 µM (inactive) | > 100 µM (inactive) | > 100 µM (inactive) | > 100 µM (inactive) | – | > 100 µM (inactive) | > 100 µM (inactive) | > 100 µM | > 100 µM (inactive) | > 100 µM (inactive) | –
CSc1nc(Cl)c2c(n1)Sc1nc3cc4c(cc3n1C2O)OCCO4 (stereo not drawn) | 11.1 µM (inactive) | 0.06 µM (active) | 0.126 µM (active) | 0.137 µM (active) | 0.0158 µM (active) | 0.379 µM (active) | 0.0897 µM (active) | 0.501 µM (active) | 1.74 µM (inactive) | 15.2 µM (inactive) | 0.131 µM (active) | 0.0247 µM (active) | 0.223 µM (active) | – | 0.0703 µM (active) | 0.0153 µM (active) | 0.104 µM | 0.39 µM (active) | 0.0382 µM (active) | 0.295 µM (active)
O=C1Oc2ccccc2C(=O)/C1=C/NC(=S)NCc1ccccc1 | 90.6 µM (inactive) | 51.6 µM (inactive) | 65.2 µM (inactive) | > 100 µM (inactive) | 54.3 µM (inactive) | 55.6 µM (inactive) | 70 µM (inactive) | > 100 µM (inactive) | 16.9 µM (inactive) | > 100 µM (inactive) | 25.1 µM (inactive) | 43.9 µM (inactive) | 57.3 µM (inactive) | 42.7 µM (inactive) | 69.5 µM (inactive) | 99.1 µM (inactive) | 49.5 µM | 36.2 µM (inactive) | – | –
CC1(C)CC(=O)C(Cc2ccccc2)(Cc2ccccc2)C(=O)C1 | > 100 µM (inactive) | > 100 µM (inactive) | > 100 µM (inactive) | – | – | > 100 µM (inactive) | > 100 µM (inactive) | > 100 µM (inactive) | 39.8 µM (inactive) | > 100 µM (inactive) | > 100 µM (inactive) | > 100 µM (inactive) | > 100 µM (inactive) | > 100 µM (inactive) | > 100 µM (inactive) | > 100 µM (inactive) | > 100 µM | > 100 µM (inactive) | > 100 µM (inactive) | 29.2 µM (inactive)
OC1OC(c2ccco2)C(F)(F)C(F)(F)C1(F)F (stereo not drawn) | > 100 µM (inactive) | 19.9 µM (inactive) | 74 µM (inactive) | > 100 µM (inactive) | 43.6 µM (inactive) | 68.7 µM (inactive) | > 100 µM (inactive) | > 100 µM (inactive) | – | 81.7 µM (inactive) | > 100 µM (inactive) | > 100 µM (inactive) | > 100 µM (inactive) | 34.4 µM (inactive) | 35.2 µM (inactive) | > 100 µM (inactive) | 90.4 µM | – | – | 18.2 µM (inactive)
Cc1c(C(=O)O)n2c(C)nnc2c2ccccc12 | > 100 µM (inactive) | > 100 µM (inactive) | > 100 µM (inactive) | > 100 µM (inactive) | > 100 µM (inactive) | > 100 µM (inactive) | > 100 µM (inactive) | > 100 µM (inactive) | 36 µM (inactive) | > 100 µM (inactive) | > 100 µM (inactive) | > 100 µM (inactive) | > 100 µM (inactive) | – | > 100 µM (inactive) | > 100 µM (inactive) | > 100 µM | > 100 µM (inactive) | > 100 µM (inactive) | > 100 µM (inactive)
N#CCCN(CCC#N)c1ccc(/C=C2\N=C(c3ccccc3)N(NC(N)=S)C2=O)cc1 | > 100 µM (inactive) | 12.9 µM (inactive) | > 100 µM (inactive) | > 100 µM (inactive) | 41.4 µM (inactive) | > 100 µM (inactive) | > 100 µM (inactive) | > 100 µM (inactive) | – | > 100 µM (inactive) | > 100 µM (inactive) | > 100 µM (inactive) | > 100 µM (inactive) | > 100 µM (inactive) | > 100 µM (inactive) | > 100 µM (inactive) | > 100 µM | – | – | > 100 µM (inactive)
